Results on one molecule are retold here after ChEMBL document CHEMBL4304811, “Development of a Water-Soluble Indolylmaleimide Derivative IM-93 Showing Dual Inhibition of Ferroptosis and NETosis” (ACS Med Chem Lett, 2019).

Test [1] addresses Aurora kinase B (Homo sapiens) (UniProt Q96GD4). The test is described as follows: Binding affinity to wild-type human partial length AURKB (D25 to A303 residues) expressed in mammalian expression system assessed as residual binding level at 10 uM by Kinomescan method relative to control.
For test [2], the target named is Serine/threonine-protein kinase Chk1 (Homo sapiens) (UniProt O14757). The test is described as follows: Binding affinity to wild-type human partial length CHEK1 (M1 to G289 residues) expressed in bacterial expression system assessed as residual binding level at 10 uM by Kinomescan method relative to control.
In test [3] the target is Serine/threonine-protein kinase Nek3 (Homo sapiens) (UniProt P51956). The test is described as follows: Binding affinity to wild-type human full length NEK3 (M1 to R506 residues) expressed in mammalian expression system assessed as residual binding level at 10 uM by Kinomescan method relative to control.
Test [4] addresses Dual specificity tyrosine-phosphorylation-regulated kinase 2 (Homo sapiens) (UniProt Q92630). The test is described as follows: Binding affinity to wild-type human full length DYRK2 (M1 to S528 residues) expressed in mammalian expression system assessed as residual binding level at 10 uM by Kinomescan method relative to control.
Test [5] relates to Epidermal growth factor receptor (Homo sapiens), P00533 [UNDEFINED MUTATION]. The test is described as follows: Binding affinity to human partial length EGFR L747-S752del/P753S mutant expressed in bacterial expression system assessed as residual binding level at 10 uM by Kinomescan method relative to control.
In test [6] the target is Vascular endothelial growth factor receptor 2 (Homo sapiens) (UniProt P35968). In words: Binding affinity to wild-type human partial length VEGFR2 (R787 to P1253 residues) expressed in mammalian expression system assessed as residual binding level at 10 uM by Kinomescan method relative to control.
For test [7], the target named is Ephrin type-A receptor 8 (Homo sapiens) (UniProt P29322). The test is described as follows: Binding affinity to wild-type human partial length EPHA8 (Q608 to C920 residues) expressed in bacterial expression system assessed as residual binding level at 10 uM by Kinomescan method relative to control.
The target in test [8] is Tyrosine-protein kinase Yes (Homo sapiens) (UniProt P07947). The test is described as follows: Binding affinity to wild-type human partial length YES (T257 to L543 residues) expressed in bacterial expression system assessed as residual binding level at 10 uM by Kinomescan method relative to control.
The target of test [9] is Proto-oncogene tyrosine-protein kinase receptor Ret (Homo sapiens) (UniProt P07949). In words: Binding affinity to wild-type human partial length RET (E713 to D1014 residues) expressed in bacterial expression system assessed as residual binding level at 10 uM by Kinomescan method relative to control.
Test [10] deals with Mitogen-activated protein kinase kinase kinase 1 (Homo sapiens) (UniProt Q13233). In words: Binding affinity to wild-type human partial length MAP3K1 (L1202 to W1512 residues) expressed in mammalian expression system assessed as residual binding level at 10 uM by Kinomescan method relative to control.
Test [11] concerns the target Serine/threonine-protein kinase TAO3 (Homo sapiens) (UniProt Q9H2K8). The test is described as follows: Binding affinity to wild-type human partial length TAOK3 (M1 to T316 residues) expressed in mammalian expression system assessed as residual binding level at 10 uM by Kinomescan method relative to control.
The target of test [12] is NUAK family SNF1-like kinase 1 (Homo sapiens) (UniProt O60285). The test is described as follows: Binding affinity to wild-type human partial length ARK5 (E25 to I332 residues) expressed in bacterial expression system assessed as residual binding level at 10 uM by Kinomescan method relative to control.
Test [13] deals with Atypical kinase COQ8A, mitochondrial (Homo sapiens) (UniProt Q8NI60). The test is described as follows: Binding affinity to wild-type human full length ADCK3 (M280 to Q647 residues) expressed in bacterial expression system assessed as residual binding level at 10 uM by Kinomescan method relative to control.
Test [14] deals with Serine/threonine-protein kinase MAK (Homo sapiens) (UniProt P20794). The test is described as follows: Binding affinity to wild-type human partial length MAK (M1 to P314 residues) expressed in bacterial expression system assessed as residual binding level at 10 uM by Kinomescan method relative to control.
Test [15] addresses Protein kinase C eta type (Homo sapiens) (UniProt P24723). The test is described as follows: Binding affinity to wild-type human partial length PRKCH (S324 to P683 residues) expressed in bacterial expression system assessed as residual binding level at 10 uM by Kinomescan method relative to control.
For test [16], the target named is Protein-tyrosine kinase 6 (Homo sapiens) (UniProt Q13882). In words: Binding affinity to wild-type human partial length BRK (L166 to T451 residues) expressed in bacterial expression system assessed as residual binding level at 10 uM by Kinomescan method relative to control.
In test [17] the target is Mitogen-activated protein kinase 3 (Homo sapiens) (UniProt P27361). In words: Binding affinity to wild-type human full length ERK1 (M1 to P379 residues) expressed in bacterial expression system assessed as residual binding level at 10 uM by Kinomescan method relative to control.
Test [18] addresses Transient receptor potential cation channel subfamily M member 6 (Homo sapiens) (UniProt Q9BX84). The test is described as follows: Binding affinity to wild-type human partial length TRPM6 (Q1723 to I1998 residues) expressed in mammalian expression system assessed as residual binding level at 10 uM by Kinomescan method relative to control.
Test [19] has as its system Tyrosine-protein kinase ABL1 (Homo sapiens), P00519 [E255K]. In words: Binding affinity to human phosphorylated ABL1 E255K mutant (S229 to K512 residues) expressed in mammalian expression system assessed as residual binding level at 10 uM by Kinomescan method relative to control.
The target of test [20] is Mitogen-activated protein kinase kinase kinase 19 (Homo sapiens) (UniProt Q56UN5). The test is described as follows: Binding affinity to wild-type human partial length YSK4 (T1019 to H1328 residues) expressed in mammalian expression system assessed as residual binding level at 10 uM by Kinomescan method relative to control.
Test [21] concerns the target Phosphatidylinositol 4,5-bisphosphate 3-kinase catalytic subunit beta isoform (Homo sapiens) (UniProt P42338). In words: Binding affinity to wild-type human partial length PIK3CB (P118 to S1070 residues) expressed in mammalian expression system assessed as residual binding level at 10 uM by Kinomescan method relative to control.
For test [22], the target named is Tyrosine-protein kinase Fgr (Homo sapiens) (UniProt P09769). In words: Binding affinity to wild-type human partial length FGR (L233 to T529 residues) expressed in bacterial expression system assessed as residual binding level at 10 uM by Kinomescan method relative to control.
The test system of test [23] is Phosphatidylinositol 4,5-bisphosphate 3-kinase catalytic subunit alpha isoform (Homo sapiens), P42336 [E545K]. The test is described as follows: Binding affinity to human partial length PIK3CA E545K mutant (R108 to N1068 residues) expressed in mammalian expression system assessed as residual binding level at 10 uM by Kinomescan method relative to control.
For test [24], the target named is Cyclin-dependent kinase 11A (Homo sapiens) (UniProt Q9UQ88). The test is described as follows: Binding affinity to wild-type human partial length CDC2L2 (D391 to K730 residues) expressed in bacterial expression system assessed as residual binding level at 10 uM by Kinomescan method relative to control.

SMILES strings stand for the structures.

Chain of Proto-oncogene tyrosine-protein kinase receptor Ret (Homo sapiens) (P07949 whole entry, the tested form may be a part): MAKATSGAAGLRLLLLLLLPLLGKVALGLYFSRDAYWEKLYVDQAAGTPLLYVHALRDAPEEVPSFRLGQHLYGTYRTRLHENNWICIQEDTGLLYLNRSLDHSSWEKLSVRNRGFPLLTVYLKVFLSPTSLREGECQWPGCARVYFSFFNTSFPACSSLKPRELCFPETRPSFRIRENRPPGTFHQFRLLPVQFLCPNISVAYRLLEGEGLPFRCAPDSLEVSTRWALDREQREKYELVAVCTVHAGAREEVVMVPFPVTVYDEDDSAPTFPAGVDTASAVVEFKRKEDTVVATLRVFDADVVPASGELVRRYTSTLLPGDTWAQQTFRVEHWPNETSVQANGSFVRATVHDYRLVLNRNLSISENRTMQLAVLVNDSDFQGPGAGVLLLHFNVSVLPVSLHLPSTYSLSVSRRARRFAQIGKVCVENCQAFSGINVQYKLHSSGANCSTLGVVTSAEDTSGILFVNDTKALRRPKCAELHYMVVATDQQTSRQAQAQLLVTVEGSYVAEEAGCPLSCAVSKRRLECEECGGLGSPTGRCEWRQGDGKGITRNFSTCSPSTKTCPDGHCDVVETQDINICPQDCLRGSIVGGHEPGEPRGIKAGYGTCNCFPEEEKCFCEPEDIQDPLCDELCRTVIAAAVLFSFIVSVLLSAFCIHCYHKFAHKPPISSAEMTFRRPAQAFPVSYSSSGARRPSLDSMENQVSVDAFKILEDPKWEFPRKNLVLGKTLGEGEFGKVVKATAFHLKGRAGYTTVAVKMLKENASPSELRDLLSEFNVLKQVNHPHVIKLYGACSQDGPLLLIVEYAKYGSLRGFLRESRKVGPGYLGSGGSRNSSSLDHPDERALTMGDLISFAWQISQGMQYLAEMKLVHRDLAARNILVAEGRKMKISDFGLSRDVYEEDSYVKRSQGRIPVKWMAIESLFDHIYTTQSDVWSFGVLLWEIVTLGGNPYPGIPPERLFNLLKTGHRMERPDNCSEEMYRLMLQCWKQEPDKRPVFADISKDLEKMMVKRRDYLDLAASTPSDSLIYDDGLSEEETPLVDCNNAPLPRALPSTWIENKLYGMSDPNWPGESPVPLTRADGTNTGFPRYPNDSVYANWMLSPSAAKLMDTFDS
Chain of Aurora kinase B (Homo sapiens) (Q96GD4 whole entry, the tested form may be a part): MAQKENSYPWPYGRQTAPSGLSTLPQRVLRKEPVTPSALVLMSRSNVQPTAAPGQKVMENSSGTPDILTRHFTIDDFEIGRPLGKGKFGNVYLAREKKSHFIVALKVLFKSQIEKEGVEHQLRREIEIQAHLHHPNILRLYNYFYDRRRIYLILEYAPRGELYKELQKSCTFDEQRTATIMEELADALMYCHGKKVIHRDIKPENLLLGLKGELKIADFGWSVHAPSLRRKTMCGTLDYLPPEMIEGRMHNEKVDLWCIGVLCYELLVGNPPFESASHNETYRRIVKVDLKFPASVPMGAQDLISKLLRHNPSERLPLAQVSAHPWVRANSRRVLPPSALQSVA
Chain of Tyrosine-protein kinase Yes (Homo sapiens) (P07947 2-543 limits assumed): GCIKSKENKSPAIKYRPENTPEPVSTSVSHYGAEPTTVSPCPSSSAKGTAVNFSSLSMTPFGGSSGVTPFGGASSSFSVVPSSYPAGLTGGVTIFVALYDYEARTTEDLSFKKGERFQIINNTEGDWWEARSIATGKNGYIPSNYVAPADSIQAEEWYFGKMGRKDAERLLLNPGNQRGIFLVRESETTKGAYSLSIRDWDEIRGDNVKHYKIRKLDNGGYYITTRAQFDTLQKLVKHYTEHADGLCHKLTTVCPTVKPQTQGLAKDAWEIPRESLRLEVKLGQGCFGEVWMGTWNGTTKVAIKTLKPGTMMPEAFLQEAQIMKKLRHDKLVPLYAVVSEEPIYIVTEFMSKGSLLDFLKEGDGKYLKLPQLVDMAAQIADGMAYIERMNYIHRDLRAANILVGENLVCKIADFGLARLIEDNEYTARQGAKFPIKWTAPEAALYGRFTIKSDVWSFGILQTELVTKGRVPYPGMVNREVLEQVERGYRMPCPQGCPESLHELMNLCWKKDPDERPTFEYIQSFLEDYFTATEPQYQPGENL
Chain of Phosphatidylinositol 4,5-bisphosphate 3-kinase catalytic subunit alpha isoform (Homo sapiens), P42336 [E545K] (P42336 whole entry E545K, the tested form may be a part, canonical isoform): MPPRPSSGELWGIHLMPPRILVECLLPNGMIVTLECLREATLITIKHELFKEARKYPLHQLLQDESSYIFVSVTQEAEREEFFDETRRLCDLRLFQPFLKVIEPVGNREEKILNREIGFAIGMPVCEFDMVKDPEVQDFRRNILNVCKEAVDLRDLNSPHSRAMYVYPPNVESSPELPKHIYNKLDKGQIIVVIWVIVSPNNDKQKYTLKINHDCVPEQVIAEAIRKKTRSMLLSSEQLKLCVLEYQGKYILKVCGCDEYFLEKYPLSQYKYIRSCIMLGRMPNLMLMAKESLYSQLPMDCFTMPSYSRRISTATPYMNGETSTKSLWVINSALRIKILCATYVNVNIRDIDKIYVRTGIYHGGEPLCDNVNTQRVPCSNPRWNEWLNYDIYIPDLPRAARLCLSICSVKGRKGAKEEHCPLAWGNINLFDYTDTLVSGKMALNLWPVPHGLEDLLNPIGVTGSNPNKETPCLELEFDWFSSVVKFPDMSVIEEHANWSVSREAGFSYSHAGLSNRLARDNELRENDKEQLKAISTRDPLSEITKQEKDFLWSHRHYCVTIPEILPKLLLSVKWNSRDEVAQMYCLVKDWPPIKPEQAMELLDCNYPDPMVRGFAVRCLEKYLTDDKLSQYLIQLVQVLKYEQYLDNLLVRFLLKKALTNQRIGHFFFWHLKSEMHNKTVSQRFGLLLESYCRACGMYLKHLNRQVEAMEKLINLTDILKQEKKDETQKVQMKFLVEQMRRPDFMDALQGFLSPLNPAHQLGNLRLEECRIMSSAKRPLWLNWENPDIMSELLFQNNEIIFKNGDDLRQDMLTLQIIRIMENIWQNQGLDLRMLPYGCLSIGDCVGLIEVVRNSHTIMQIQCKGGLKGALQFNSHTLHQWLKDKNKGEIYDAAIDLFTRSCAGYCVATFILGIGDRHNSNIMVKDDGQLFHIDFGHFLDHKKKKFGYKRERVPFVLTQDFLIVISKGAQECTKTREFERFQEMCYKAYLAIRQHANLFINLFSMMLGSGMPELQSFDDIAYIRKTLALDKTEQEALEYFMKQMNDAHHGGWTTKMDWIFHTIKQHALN
Chain of Phosphatidylinositol 4,5-bisphosphate 3-kinase catalytic subunit beta isoform (Homo sapiens) (P42338 whole entry, looked up, the tested form may be a part, canonical isoform): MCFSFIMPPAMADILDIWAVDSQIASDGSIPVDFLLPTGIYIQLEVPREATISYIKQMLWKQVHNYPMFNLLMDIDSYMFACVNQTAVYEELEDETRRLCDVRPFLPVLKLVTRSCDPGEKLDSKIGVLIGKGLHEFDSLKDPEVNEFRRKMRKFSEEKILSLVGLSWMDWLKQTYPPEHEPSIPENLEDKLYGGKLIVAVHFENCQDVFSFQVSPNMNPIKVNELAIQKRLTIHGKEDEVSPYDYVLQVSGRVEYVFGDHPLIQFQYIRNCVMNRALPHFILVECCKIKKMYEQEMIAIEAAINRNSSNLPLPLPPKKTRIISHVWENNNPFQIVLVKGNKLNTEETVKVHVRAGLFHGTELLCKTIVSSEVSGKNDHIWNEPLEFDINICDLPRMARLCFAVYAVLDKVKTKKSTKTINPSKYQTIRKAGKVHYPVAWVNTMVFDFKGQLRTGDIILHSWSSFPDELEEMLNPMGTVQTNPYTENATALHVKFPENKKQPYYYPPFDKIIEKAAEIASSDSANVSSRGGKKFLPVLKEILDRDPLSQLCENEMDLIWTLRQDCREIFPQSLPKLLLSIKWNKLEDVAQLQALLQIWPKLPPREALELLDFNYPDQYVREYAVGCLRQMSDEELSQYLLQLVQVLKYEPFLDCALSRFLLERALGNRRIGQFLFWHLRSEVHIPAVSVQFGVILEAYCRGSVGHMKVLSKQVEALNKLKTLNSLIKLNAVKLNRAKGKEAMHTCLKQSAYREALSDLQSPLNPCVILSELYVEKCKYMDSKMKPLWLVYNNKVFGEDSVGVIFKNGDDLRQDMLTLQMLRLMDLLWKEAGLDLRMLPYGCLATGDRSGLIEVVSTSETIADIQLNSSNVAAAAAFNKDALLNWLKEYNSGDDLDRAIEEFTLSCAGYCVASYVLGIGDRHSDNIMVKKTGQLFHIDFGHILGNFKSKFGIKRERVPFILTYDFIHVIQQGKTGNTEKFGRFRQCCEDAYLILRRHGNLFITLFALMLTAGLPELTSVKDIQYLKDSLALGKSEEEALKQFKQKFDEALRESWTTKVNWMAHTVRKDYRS
Chain of Cyclin-dependent kinase 11A (Homo sapiens) (Q9UQ88 whole entry, the tested form may be a part): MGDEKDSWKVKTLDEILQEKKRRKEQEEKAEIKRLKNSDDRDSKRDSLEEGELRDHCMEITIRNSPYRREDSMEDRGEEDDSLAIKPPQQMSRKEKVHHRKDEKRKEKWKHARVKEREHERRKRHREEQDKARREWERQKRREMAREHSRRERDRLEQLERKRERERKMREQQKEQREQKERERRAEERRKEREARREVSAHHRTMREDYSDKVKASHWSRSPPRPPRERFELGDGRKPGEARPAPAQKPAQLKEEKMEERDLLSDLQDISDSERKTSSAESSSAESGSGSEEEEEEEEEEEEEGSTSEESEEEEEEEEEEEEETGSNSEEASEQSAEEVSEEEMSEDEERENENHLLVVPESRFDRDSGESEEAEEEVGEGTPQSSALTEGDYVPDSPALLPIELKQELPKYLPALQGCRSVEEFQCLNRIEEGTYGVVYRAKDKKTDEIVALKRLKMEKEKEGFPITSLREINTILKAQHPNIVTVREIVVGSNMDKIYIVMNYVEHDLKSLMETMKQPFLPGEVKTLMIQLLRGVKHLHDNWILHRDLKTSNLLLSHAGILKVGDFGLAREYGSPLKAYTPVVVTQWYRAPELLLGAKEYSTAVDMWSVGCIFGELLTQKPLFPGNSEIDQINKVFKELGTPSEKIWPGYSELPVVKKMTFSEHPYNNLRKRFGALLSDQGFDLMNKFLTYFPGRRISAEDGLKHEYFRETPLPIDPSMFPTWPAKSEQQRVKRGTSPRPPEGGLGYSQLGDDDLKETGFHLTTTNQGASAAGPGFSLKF

On to `CC(C)N1C(=O)C(NCCCN(C)C)=C(c2cn(C)c3ccccc23)C1=O.Cl`, for which the Activity in test [1] is 84%; in test [2], 100%; in [3] it was 94%; in test [4] it was 87%; in test [5], 88%; in [6], 66%. Further, the Activity was determined as 89% in test [7]; 100% in test [8]; 98% in test [9]; 68% in test [10]; 88% in test [11]; 94% in test [12]. Moreover, the Activity came out at 91% in [13]; 100% in [14]; 99% in test [15]; 100% in test [16]; 87% in test [17]; 97% in test [18]. Besides, the Activity in [19] amounted to 89%; in test [20], 96%; in test [21], 89%; in test [22] it was 82%; in test [23], 93%; in [24], 96%.
